Laboratory results taken from paper PMC7112772 (Journal of Virological Methods, 2005).
Like-named read-outs stand apart in the source and are kept apart here.

Columns and labels:
SARS-CoV [1] = conditions: for EC50: read-out: SARS-CoV EC50
TGEV = test: microbe, parasite or virus in culture; format: cell-based, strain purdue112 (porcine coronavirus); conditions: read-out: TGEV EC50
in vitro [2] = conditions: African monkey
SARS-CoV [3] = test: microbe, parasite or virus in culture; conditions: Severe acute respiratory syndrome coronavirus, 120 h, read-out: SARS-CoV EC50
in vitro [4] = conditions: pig

Row | Compound | CC50 (LLC-PK1-EGFP cells) [µM] | SI SARS CC50/EC50 (SARS-CoV [1]) | EC50 (SARS-CoV [1]) [µM] | EC50 (TGEV) [µM] | CC50 (VeroE6-EGFP cells) [µM] | CC50 (in vitro [2]) [µM] | EC50 (SARS-CoV [3]) [µM] | CC50 (in vitro [4]) [µM] | EC50 (TGEV; Alphacoronavirus 1, 120 h) [µM]
1 | S-Nitroso-N-acetylpenicillamine | 312 | <1.00 | > 530 | > 312 | 530 | – | – | – | –
2 | dextran sulfate 5000 [DS5000] | > 100 | – | > 100 | > 100 | > 100 | – | – | – | –
3 | Lopinavir/ritonavir | > 100 | – | – | – | > 100 | – | – | – | –
4 | NC(=O)c1ncn([C@@H]2O[C@H](CO)[C@@H](O)[C@H]2O)n1 [Ribavirin] | – | – | – | – | – | > 100 | > 100 | 20.2 | > 20.2
5 | CC1(C)[C@@H](O[C@H]2O[C@H](C(=O)O)[C@@H](O)[C@H](O)[C@H]2O[C@@H]2O[C@H](C(=O)O)[C@@H](O)[C@H](O)[C@H]2O)CC[C@]2(C)[C@H]3C(=O)C=C4[C@@H]5C[C@@](C)(C(=O)O)CC[C@]5(C)CC[C@@]4(C)[C@]3(C)CC[C@@H]12 [Glycirrhizin] | – | – | – | – | – | > 100 | > 100 | > 100 | > 100
6 | O=C(O)C1=CC(=C(c2ccc(O)c(C(=O)O)c2)c2ccc(O)c(C(=O)O)c2)C=CC1=O [ATA, aurintricarboxylic acid] | – | <1.00 | – | – | – | 9.19 | > 9.19 | 56.9 | > 56.9
7 | Cc1cn([C@H]2C[C@H](N=[N+]=[N-])[C@@H](CO)O2)c(=O)[nH]c1=O [AZT] | > 100 | – | > 100 | > 100 | > 100 | – | – | – | –
